# Measured values published in US20160355782A1, “METHOD FOR ENHANCING DIFFERENTIATION OF DOPAMINERGIC NEURONS” (Buddhist Tzu Chi Medical Foundation, priority 2015, published 2016).
# Assays:
# Format in all cases: cell-based, rat
# [1] = tested on: TH promoter in Nurr1-transfected cortical NPCs; assay: TH promoter assay (pAAV-Nurr1 and pTH6.0-GL3) in cortical NPCs; conditions: 24 hours
# Source text: The luciferase reporter vector pTH6.0-GL3 constructed by engineering the 6.0 kb upstream sequences of the rat TH (TH6.0) gene into pGL3 was kindly provided by Dr. Kwang-Soo Kim (Harvard Medical School, Belmont, Mass.). Vector expressing Nurr1 (mouse) was constructed by inserting the respective cDNA into pAAV-MCS vector (pAAV-Nurr1), in which the cloned gene is designed to be expressed under the control of the cytomegalovirus (CMV) immediate-early promoter. pTH6.0-GL3 alone or combined with pAAV-Nurr1 were transfected into a human neuro-blastoma SH-SY5Y cell line or cortical NPCs, respectively, using Lipofectamine 2000 (Invitrogen) according to the protocol of the manufacturer. For determine the effect of MeCP2-CoREST-HDAC1 repressor complex on TH promoter activity, the SH-SY5Y cells were double transfected with pTH6.0-GL3 and pCMV6-Entry-Mecp2 (Flag-tagged MeCP2)/or pCMV6-Entry-Rcor1 (Flag-tagged CoREST) (both from OriGene Technologies, Rockville, Md.)/or pK7-HDAC1-GFP (Addgene). […] Luciferase activity of cell lysates was determined luminometrically by the luciferase assay system (Promega, Madison, Wis.) as specified by the manufacturer. Luciferase activity was normalized to the protein content of the extracts. Relative luciferase activity was determined to reflect promoter activity of TH, expressed as the fold increase relative to the activity of control or untreated mock control.
# [2] = tested on: cortical neural precursor cells (NPCs); assay: TH+ cell differentiation of lentivirus-transduced (Nurr1 or GFP) cortical NPCs
# Description: Cultures of neural precursor cells (NPCs) derived from cortices at E13.5 were performed as the methods known by a person skilled in the art, for example, as the protocol described by Huang et al. (2012) and carried out with some modifications. Briefly, dissected cortical tissues were mechanically triturated and plated at 5×10^4 cells on coverslips (12-mm diameter) pre-coated with 20 μg/mL fibronectin (Invitrogen)/15 μg/mL poly-L-ornithine (Sigma-Aldrich) in 24 well plates. Cells were cultured in a serum-free NPCs culture medium containing DMEMF12, 2% B27 supplement (Invitrogen), 0.6% glucose, 20 ng/mL bFGF (Sigma-Aldrich), 20 ng/mL EGF (Invitrogen), 2 μg/mL heparin (Sigma-Aldrich), 100 U/mL penicillin, and 100 μg/mL streptomycin.
# TH promoter assay or lenti-virial transductions were carried out at 60%˜70% cell confluences (usually for 3 days) as described below. Cell differentiation was induced for 3 to 5 days by switching to mitogens-free DMEM/F12/N2 medium in the presence of 0.5 μM UCN. Differentiation medium was changed every other day.
# For lenti-viral transduction, E13 cortical NPCs were incubated with lenti-viruses (25 multiplicity of infection) expressing Nurr1 or GFP containing poly-brene (hexadimethrine bromide, 1 μg/mL, Sigma-Aldrich) for 24 hours. After 1 day of further cell expansion in the presence of the mitogens, cells were induced to differentiate.
# (§1) For immuno-cytochemistry, cells were fixed with 4% paraformaldehyde followed by blocking with PBS containing 0.4% Triton X-100, 3% normal goat serum and 2% bovine serum albumin (BSA) for 1 h at room temperature. After blocking, cells were incubated overnight at room temperature with primary antibodies. Primary antibodies were rabbit anti-UCN (1:200), mouse anti-TH (1:2000) (both from Sigma-Aldrich), goat anti-CRHR1 (1:100), rabbit anti-CRHR2 (1:250), rat anti-dopamine transporter (DAT, 1:200), chicken anti-MAP2 (1:5000) (all from Abcam, Cambridge, Mass.), rabbit anti-Nurr1 (1:100, Santa Cruz Biotechnology), mouse anti-Nurr1 (1:100, R&D Systems, Minneapolis, Minn.), rabbit anti-TH (1:1000), mouse anti-NeuN (1:200) (both from Chemicon, Temecula, Calif.), rabbit anti-acetyl-histone H3 (1:1000, Upstate Biotechnology, Lake Placid, N.Y.), rabbit anti-Foxa2 (1:500, Cell Signaling Technology), and rabbit anti-Pitx3 (1:100, Invitrogen).
# For detection of dopaminergic neurons, the bound anti-TH antibody was visualized by incubation with an appropriate biotinylated secondary antibody followed by the Vectastain avidin-biotin-peroxidase (ABC) reagents (Vector Laboratories, Burlingame, Calif.) and color development with 3,3′-diaminobenzidine. The number of TH-positive neurons were counted in the entire surface area of a culture well or coverslip. For fluorescent double-labeling experiments, cells were incubated for 1 h at room temperature with rhodamine-conjugated donkey anti-mouse IgG (1:250), FITC-conjugated goat anti-rabbit IgG (1:250) or FITC-conjugated donkey anti-goat IgG (1:200) secondary antibodies (all from Jackson Immuno Research, West Grove, Pa.). Samples were counter-stained with Hoechst 33342 (5 μg/mL, Sigma-Aldrich) or DAPI (1 μg/mL), and mounted with 50% glycerol in PBS. Microscopic observations were done with a Zeiss Axiovert 200 M fluorescent microscope or a Zeiss LSM 510 META confocal imaging system (Carl Zeiss, Oberkochen, Germany). Immuno-reactive or Hoechst 33342-stained cells were counted in at least 10 random areas of each culture coverslip at a magnification of 100×.
# [3] = tested on: acetylated histone H3 (Ac-H3); assay: Histone H3 acetylation (Western blot, immuno-staining) in VM precursor cultures
# Description: as §1
# For Western blot analysis, VM precursor cells were lysed in M-PER® Mammalian Protein Extraction Reagent (Pierce). Protein concentration was determined by Bradford assay (Bio-Rad, Hercules, Calif.). 30˜50 μg of protein sample was separated on 10˜12% sodium dodecyl sulphate-polyacrylamide gel (SDS-PAGE) and transferred to immobilon polyvinylidene difluoride (PVDF) membranes (Merck Millipore). The membranes were incubated in Tris-buffered saline (TBST, 0.1 M Tris/HCl, pH 7.4, 0.9% NaCl, 0.1% Tween 20) supplemented with 5% non-fat dry milk for 1 h to block nonspecific binding. […] The antigen-antibody complex was detected by using an ECL chemi-luminescence detection system (PerkinElmer, Boston, Mass.). The intensity of the bands was quantified with a GS-800 calibrated densitometer (Bio-Rad), and calculated as the optical density X area of bands.
Compound,TH promoter activity (relative luciferase activity) ([1]; 1 μM UCN),"conversion of Nurr1+ cortical NPCs into DA neurons ([2]; 0.5 μM UCN, 3 days)","TH+ cells expressing the mature DA neuron-specific marker DAT ([2]; Nurr1-transduced NPCs, 0.5 μM UCN, 4 days)","TH+ cell numbers ([2]; cortical NPCs transduced with GFP, 0.5 μM UCN, 3 days)","TH+ cell numbers ([2]; cortical NPCs transduced with Nurr1, 0.5 μM UCN, 3 days)","Ac-H3-immuno-reactivity in non- or Nurr1-expressing cells ([3]; 1 μM UCN, 1 hour)","levels of Ac-H3 (Western blot) ([3]; 1 μM UCN, within minutes)",duration of histone H3 acetylation ([3]; single application of UCN),TH promoter activity ([1]; 0.5 mM SB),"TH+ cell numbers ([2]; Nurr1-transduced cortical NPCs, SB, 3 days)"
Urocortin [UCN],activation of the TH promoter,increased the conversion,almost all of TH^+ cells,do not change,increase in TH^+ cell numbers,increased,significantly increases,at least 48 hours,–,–
"CCCC(=O)[O-].[Na+] [SB, sodium butyrate, reference compound]",–,–,–,–,–,–,–,–,increase TH promoter activity,increase in TH^+ cell numbers
